Measured values from patent US12486301B2, “8-fluoro-4-alkylumbelliferyl α-D-glucopyranoside, biological sterilization indicator including the same and its use in a method of determining efficacy of a sterilization process” (Solventum Intellectual Properties Company, priority 2019, dated 2025).

Test system: Geobacillus stearothermophilus spores (ATCC 7953)
Experiment: Fluorescence from enzyme substrates incubated with Geobacillus stearothermophilus spores in culture media
Type: cell-based
Details: 5×10^3 spores, substrate 0.1 mg/mL, 60° C.; for MEASURED FLUORESCENCE, RFU 10 sec: 360 nm excitation/450 nm emission
Procedure: Culture media was prepared by dissolving 5 g/L peptone C (BD 211921) and 12 g/L phytone peptone (BD BBL 211906) in deionized water. The pH was adjusted with 1 N NaOH or 0.1 N HCl, the media brought to volume, and then filter sterilized with a 0.22 micron PES filter. Stock solutions ([…]) of 8′-fluoro-4′-methylumbelliferyl-α-D-glucopyranoside, 6′-fluoro-4′-methylumbelliferyl-α-D-glucopyranoside, and 4-methylumbelliferyl-α-D-glucopyranoside were prepared in DMSO. The aforementioned substrates were added to culture media at a final concentration of 0.1 mg/ml and media were then 0.22 μm filter sterilized.
Culture media (pH 6) containing 8′-fluoro-4′-methylumbelliferyl-[…]-D-glucopyranoside (0.1 mg/mL) was added to two wells (100 microliters per well) of a black 96-well microtiter plate with (NUNC #165301, Thermo Fisher Scientific). A 5 microliter aqueous suspension containing 5×10^3 Geobacillus stearothermophilus spores (ATCC 7953) was added to each well of the microtiter plate. Next, the contents of each well were mixed using a multiple aspiration/delivery sequence with the pipet. […] The top of the plate was covered with an optically clear sealing film (product #4311971, Applied Biosystems Corporation, Foster City, California). The plate was warmed at 60° C. and shaken in a linear direction. Fluorescence readings (360 nm excitation/450 nm emission at 50% gain) were taken from the top of the plate. A reading was taken at an initial time point of 10 seconds and then at +1 minute intervals thereafter. A Synergy Neo2 fluorescence plate reader (BioTek Company, Winooski, Vermont) was used. In Table 1, the mean fluorescence values detected (RFU) at times of 10 seconds, +5 minutes, +10 minutes, and +30 minutes are reported. The mean fluorescence values detected for the control wells were 614 RFU at 10 seconds; 547 RFU at +5 minutes; 504 RFU at +10 minutes, and 438 RFU at +30 minutes.
Culture media (pH 7) containing 8′-fluoro-4′-methylumbelliferyl-[…]-D-glucopyranoside (0.1 mg/mL) was added to two wells (100 microliters per well) of a black 96-well microtiter plate with (NUNC #165301, Thermo Fisher Scientific). A 5 microliter aqueous suspension containing 5×10^3 Geobacillus stearothermophilus spores (ATCC 7953) was added to each well of the microtiter plate. Next, the contents of each well were mixed using a multiple aspiration/delivery sequence with the pipet. […] The top of the plate was covered with an optically clear sealing film (product #4311971, Applied Biosystems Corporation). The plate was warmed at 60° C. and shaken in a linear direction. Fluorescence readings (360 nm excitation/450 nm emission at 50% gain) were taken from the top of the plate. A reading was taken at an initial time point of 10 seconds and then at +1 minute intervals thereafter. A Synergy Neo2 fluorescence plate reader (BioTek Company) was used. In Table 2, the mean fluorescence values detected (RFU) at times of 10 seconds, +5 minutes, +10 minutes, and +30 minutes are reported. The mean fluorescence values detected for the control wells were 601 RFU at 10 seconds; 533 RFU at +5 minutes; 495 RFU at +10 minutes, and 430 RFU at +30 minutes.
Culture media (pH 8) containing 8′-fluoro-4′-methylumbelliferyl-[…]-D-glucopyranoside (0.1 mg/mL) was added to two wells (100 microliters per well) of a black 96-well microtiter plate with (NUNC #165301, Thermo Fisher Scientific). A 5 microliter aqueous suspension containing 5×10^3 Geobacillus stearothermophilus spores (ATCC 7953) was added to each well of the microtiter plate. Next, the contents of each well were mixed using a multiple aspiration/delivery sequence with the pipet. […] The top of the plate was covered with an optically clear sealing film (product #4311971, Applied Biosystems Corporation). The plate was warmed at 60° C. and shaken in a linear direction. Fluorescence readings (360 nm excitation/450 nm emission at 50% gain) were taken from the top of the plate. […]

Cc1cc(=O)oc2c(F)c(O[C@H]3O[C@H](CO)[C@@H](O)[C@H](O)[C@H]3O)ccc12 [Example 1, 8′-Fluoro-4′-methylumbelliferyl […]-D-glucopyranoside]
MEASURED FLUORESCENCE, RFU 10 sec (pH 6 culture media): 806 RFU
MEASURED FLUORESCENCE, RFU +10 min (pH 6 culture media): 1909 RFU
MEASURED FLUORESCENCE, RFU +5 min (pH 7 culture media): 1474 RFU
MEASURED FLUORESCENCE, RFU +10 min (pH 7 culture media): 2681 RFU
MEASURED FLUORESCENCE, RFU +30 min (pH 7 culture media): 10190 RFU
MEASURED FLUORESCENCE, RFU +30 min (pH 8 culture media): 7477 RFU

Cc1cc(=O)oc2cc(O[C@H]3O[C@H](CO)[C@@H](O)[C@H](O)[C@H]3O)c(F)cc12 [Example 6F-MUG, 6′-Fluoro-4′-methylumbelliferyl […]-D-glucopyranoside]
MEASURED FLUORESCENCE, RFU 10 sec (pH 6 culture media): 886 RFU
MEASURED FLUORESCENCE, RFU +10 min (pH 6 culture media): 1903 RFU
MEASURED FLUORESCENCE, RFU +5 min (pH 7 culture media): 1130 RFU
MEASURED FLUORESCENCE, RFU +10 min (pH 7 culture media): 1855 RFU
MEASURED FLUORESCENCE, RFU +30 min (pH 7 culture media): 8708 RFU
MEASURED FLUORESCENCE, RFU +30 min (pH 8 culture media): 5638 RFU

Cc1cc(=O)oc2cc(O[C@H]3O[C@H](CO)[C@@H](O)[C@H](O)[C@H]3O)ccc12 [MUG, 4′-methylumbelliferyl-α-D-glucopyranoside]
MEASURED FLUORESCENCE, RFU 10 sec (pH 6 culture media): 646 RFU
MEASURED FLUORESCENCE, RFU +10 min (pH 6 culture media): 588 RFU
MEASURED FLUORESCENCE, RFU +5 min (pH 7 culture media): 634 RFU
MEASURED FLUORESCENCE, RFU +10 min (pH 7 culture media): 655 RFU
MEASURED FLUORESCENCE, RFU +30 min (pH 7 culture media): 1219 RFU
MEASURED FLUORESCENCE, RFU +30 min (pH 8 culture media): 1725 RFU
